{"source": "patent US9702824B2", "about": "“pH sensors” (PROMEGA CORPORATION, priority 2012, dated 2017)", "key": {"[1]": {"test_system": "IL6-HT7-EGFR (epidermal growth factor receptor) in U2-OS cells", "assay": "Receptor internalization detection by imaging", "type": "cell-based", "details": "1 uM sensor, stimulated with 1 ng/mL rhEGF, imaged for 1 hour", "method": "(§1) Experiments were conducted during development of embodiments of the present invention to detect and monitor internalization/endocytosis. U2-OS cells expressing (either transiently or stably) a HaloTag (HT7)-Receptor fusion protein containing an IL6 signal sequence were used. The following HT7-receptor fusion proteins were expressed in the U2-OS cells: IL6-HT7-β2AR (β2 adrenergic receptor; NM_000024.3), IL6-HT7-EDG1 ([…]; NM_001400), IL6-HT7-DOR1 (δ-opioid receptor; NM 000911) and IL6-HT7-EGFR (epidermal growth factor receptor; AB528482). The cells were plated at 2×10^5 cells/mL in complete media into wells. The cells were then incubated overnight at 37° C., 5% CO2. The media was then replaced with 200 ul McCoy's 5A media with 0.5% charcoal-stripped FBS (Hyclone) and incubated for about 1 hour at 37° C., 5% CO2. The cells were then labeled with 1 uM pH sensor PBI-4479 and incubated for 10 minutes at 37° C., 5% CO2. The cells were then washed 3 times with 200 ul complete media to remove any unbound sensor. The cells were then stimulated with the respective agonist (1 uM Isoproterenol for IL6-HT7-β2AR, 1 uM S1P for IL6-HT7-EDG1, 1 uM SNC80 for IL6-HT7-DOR1, and 1 ng/mL rhEGF for IL6-HT7-EGFR) and imaged every 5 minutes for 1 hour on an Olympus FV500."}, "[2]": {"molecular_target": "T1, IL6-HT7-DOR1 (δ-opioid receptor) in U2-OS cells (Homo sapiens, UniProt P41143)", "T1 construct": "expressed in transfected cells; host or cells: U2-OS", "T1 sequence (P41143 with tags, fused parts or gaps)": "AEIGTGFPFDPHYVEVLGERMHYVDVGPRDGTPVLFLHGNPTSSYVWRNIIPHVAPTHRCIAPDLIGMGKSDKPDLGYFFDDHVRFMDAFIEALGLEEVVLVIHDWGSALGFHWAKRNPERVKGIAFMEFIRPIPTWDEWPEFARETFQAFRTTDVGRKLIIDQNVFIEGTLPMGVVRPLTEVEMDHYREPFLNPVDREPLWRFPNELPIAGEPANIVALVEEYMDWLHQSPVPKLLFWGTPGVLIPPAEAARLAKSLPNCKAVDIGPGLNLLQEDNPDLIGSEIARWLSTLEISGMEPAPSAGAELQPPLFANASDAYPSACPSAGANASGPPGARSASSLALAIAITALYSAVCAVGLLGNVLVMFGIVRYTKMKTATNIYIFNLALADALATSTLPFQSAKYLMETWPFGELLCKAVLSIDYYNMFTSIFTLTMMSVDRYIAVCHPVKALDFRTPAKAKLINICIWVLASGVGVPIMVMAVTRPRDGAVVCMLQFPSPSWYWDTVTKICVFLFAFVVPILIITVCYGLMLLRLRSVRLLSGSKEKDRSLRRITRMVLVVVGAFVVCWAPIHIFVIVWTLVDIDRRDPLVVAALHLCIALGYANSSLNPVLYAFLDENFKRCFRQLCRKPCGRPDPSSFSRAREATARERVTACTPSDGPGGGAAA", "assay": "Receptor internalization detection by imaging", "type": "cell-based", "details": "1 uM sensor, stimulated with 1 uM SNC80, imaged for 1 hour", "method": "as §1"}, "[3]": {"molecular_target": "T2, IL6-HT7-β2AR (β2 adrenergic receptor) in U2-OS cells (Homo sapiens, UniProt P07550)", "T2 construct": "expressed in transfected cells; host or cells: U2-OS", "assay": "Receptor internalization detection by imaging", "type": "cell-based", "details": "1 uM sensor, stimulated with 1 uM Isoproterenol, imaged for 1 hour", "method": "as §1"}, "[4]": {"molecular_target": "T3, IL6-HT7-EDG1 (endothelial differential growth gene 1) in U2-OS cells (UniProt P0A3G2+P21453, A155T/A167V/A172T/A224E/C128F/C176G/D78G/E160K/E257K/H272N/K175M/K195N/L47V/L88M/N227D/S2A/S58T/T264A/Y273L/Y87F)", "T3 construct": "expressed in transfected cells; host or cells: U2-OS", "T3 sequence (P0A3G2+P21453 fused with the stated changes)": "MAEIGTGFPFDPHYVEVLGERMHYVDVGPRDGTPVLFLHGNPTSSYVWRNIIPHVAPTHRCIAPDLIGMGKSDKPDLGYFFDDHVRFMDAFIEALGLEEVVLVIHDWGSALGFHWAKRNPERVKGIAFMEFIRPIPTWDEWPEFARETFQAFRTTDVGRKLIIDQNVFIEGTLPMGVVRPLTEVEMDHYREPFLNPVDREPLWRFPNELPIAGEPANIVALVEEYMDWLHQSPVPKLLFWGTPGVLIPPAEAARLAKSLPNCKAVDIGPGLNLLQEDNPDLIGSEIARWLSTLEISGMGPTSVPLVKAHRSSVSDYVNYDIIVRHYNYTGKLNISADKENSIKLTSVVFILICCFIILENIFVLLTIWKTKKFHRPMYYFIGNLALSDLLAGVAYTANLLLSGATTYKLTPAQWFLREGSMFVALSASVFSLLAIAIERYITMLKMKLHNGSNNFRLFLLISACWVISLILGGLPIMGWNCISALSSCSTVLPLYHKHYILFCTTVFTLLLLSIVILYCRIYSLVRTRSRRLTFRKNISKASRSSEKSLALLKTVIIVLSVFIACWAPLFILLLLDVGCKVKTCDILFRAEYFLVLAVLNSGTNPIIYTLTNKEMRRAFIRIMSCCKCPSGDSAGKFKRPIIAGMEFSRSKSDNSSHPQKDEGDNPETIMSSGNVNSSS", "assay": "Receptor internalization detection by imaging", "type": "cell-based", "details": "1 uM sensor, stimulated with 1 uM S1P, imaged for 1 hour", "method": "as §1"}, "U2-OS HaloTag-EDG1 cells": {"molecular_target": "T4, U2-OS HaloTag-EDG1 cells (Homo sapiens, UniProt P21453)", "T4 construct": "host or cells: U2-OS HaloTag-EDG1 cells", "T4 sequence (P21453 with tags, fused parts or gaps)": "as the sequence (P0A3G2+P21453 fused with the stated changes) above", "assay": "Detection of internalization using an impermeable pH sensor (Example 13)", "type": "cell-based", "details": "500 nM sensor, with 1 uM S1P", "method": "The next day, the media was replaced with McCoy's 5A+0.5% cFBS and incubated overnight at 37° C./5% CO2. […] 1 uM S1P (Sphingosine-1-Phosphate) or carrier (DMSO) was then added to the cells, and images were acquired sequentially on Olympus FV500 at 37° C./5% CO2."}, "[5]": {"assay": "Fluorescence excitation and emission spectra of pH sensor agents", "type": "physicochemical", "method": "Experiments were conducted during development of embodiments of the present invention to determine the fluorescence characteristics of exemplary pH sensor agents PBI-4453 and PBI-4479 (SEE FIG. 1). Fluorescence excitation and emission intensities were measured at a range of wavelengths (SEE FIG. 2). […] Fluorescence detection was performed at a range of pH values (SEE FIG. 3)."}, "[6]": {"assay": "Stability in DMSO by fluorescent emission intensity", "type": "physicochemical", "details": "for Emission intensity, Ave: average of days 0-110; for Emission intensity: shielded from light, 562 nm, pH 4.0", "method": "PBI-4479 was dissolved to 2 mM in DMSO to approximately 2.33 mg/mL. Aliquots of 350 uL from the 2 mM solution were stored shielded from light at −20° C., 4° C. and room temperature. Stability was established by measuring fluorescent emission intensity and by testing HPLC purity at time 0, 1 day, 1 week, 1 month, 4 months, and 6 months from when the solutions were prepared and stored. For the fluorescence measurements, each aliquot was diluted (1 uL) into 4 mL of 0.1M sodium phosphate pH 4.0 directly into a 4.5 mL plastic cuvette and mixed by inversion of the vial. The maximum emission peak at 562 nm was acquired using a HoribaJobinYvon fluorometer using an excitation of 532 nm with 1.5 nm slit width. For HPLC measurements, each aliquot was diluted to 1 mM in 0.1M sodium phosphate pH 4.0, and 2 uL tested. The purity of each aliquot was tested using an Agilent 1100 liquid chromatography system equipped with a quaternary pump and a diode-array detector. The diode-array detector was set at 254 nm and 532 nm. The elution was performed using a mobile phase (A) containing 0.1% TFA in water, and a mobile phase (B) containing HPLC grade acetonitrile. A Phenomenex Synergi MAX-RP column (50×4.6 mm; 2.6 μm) was used to perform the chromatography. The HPLC was performed as follows: a gradient ran 3% to 60% mobile phase (B) to 3.60 minutes, a hold at 60% mobile phase (B) for 1 minute, a ramp up to 100% mobile phase (B) to 6 minutes, another hold at 100% mobile phase (B) for 2 minutes, and then back to 3% mobile phase (B) for 1.5 minutes. The column was given 2.5 minutes to re-equilibrate back to the starting conditions. In these conditions, the product elutes at approximately 3.7 minutes. Purity (as area percent) of the product was reported at 254 nm and 532 nm."}}, "data": [{"smiles": "O=C(NCCOCCOCCOCCOCCOCCOCCCCCCCl)c1ccc(C(=O)[O-])c(-c2c3ccc(=[N+]4CCN(CCCCS(=O)(=O)O)CC4)cc-3oc3cc(N4CCN(CCCCS(=O)(=O)O)CC4)ccc23)c1", "note": "[PBI-4479]", "values": [{"measurement": "detection of receptor internalization", "setting": "[1]", "value": "detection of HaloTag-EGFR internalization"}, {"measurement": "detection of receptor internalization", "setting": "[2]", "value": "detection of HaloTag-DOR1 internalization"}, {"measurement": "detection of receptor internalization", "setting": "[3]", "value": "detection of HaloTag-B2AR internalization"}, {"measurement": "detection of receptor internalization", "setting": "[4]", "value": "detection of HaloTag-EDG1 internalization"}, {"measurement": "detection of HaloTag-EDG1 internalization", "setting": "U2-OS HaloTag-EDG1 cells", "value": "ability to detect internalization of HaloTag-EDG1"}, {"measurement": "emission maximum", "setting": "[5]", "value": 562, "unit": "nm"}, {"measurement": "excitation maximum", "setting": "[5]", "value": 534, "unit": "nm"}, {"measurement": "degradation by fluorescence intensity", "setting": "[6]; 2 mM DMSO solution stored at room temperature", "value": "slight degradation"}, {"measurement": "Emission intensity, Ave", "setting": "[6]; 2 mM in DMSO, 4° C.", "value": 2096856.0}, {"measurement": "Emission intensity, Ave", "setting": "[6]; 2 mM in DMSO, RT", "value": 2193684.0}, {"measurement": "Emission intensity", "setting": "[6]; 2 mM in DMSO, 4° C., 0 days", "value": 2109020}, {"measurement": "Emission intensity", "setting": "[6]; 2 mM in DMSO, 4° C., 1 day", "value": 2203160}, {"measurement": "Emission intensity", "setting": "[6]; 2 mM in DMSO, 4° C., 7 days", "value": 2055280}, {"measurement": "Emission intensity", "setting": "[6]; 2 mM in DMSO, 4° C., 30 days", "value": 2076310}, {"measurement": "Emission intensity", "setting": "[6]; 2 mM in DMSO, 4° C., 110 days", "value": 2040510}, {"measurement": "Emission intensity", "setting": "[6]; 2 mM in DMSO, RT, 0 days", "value": 2109020}, {"measurement": "Emission intensity", "setting": "[6]; 2 mM in DMSO, RT, 1 day", "value": 2641010}, {"measurement": "Emission intensity", "setting": "[6]; 2 mM in DMSO, RT, 7 days", "value": 2092940}, {"measurement": "Emission intensity", "setting": "[6]; 2 mM in DMSO, RT, 30 days", "value": 2158320}, {"measurement": "Emission intensity", "setting": "[6]; 2 mM in DMSO, RT, 110 days", "value": 1967130}, {"measurement": "Emission intensity", "setting": "[6]; 2 mM in DMSO, −20° C., 0 days", "value": 2109020}, {"measurement": "Emission intensity", "setting": "[6]; 2 mM in DMSO, −20° C., 1 day", "value": 2336260}, {"measurement": "Emission intensity", "setting": "[6]; 2 mM in DMSO, −20° C., 7 days", "value": 2006990}, {"measurement": "Emission intensity", "setting": "[6]; 2 mM in DMSO, −20° C., 30 days", "value": 2191770}, {"measurement": "Emission intensity", "setting": "[6]; 2 mM in DMSO, −20° C., 110 days", "value": 1926570}, {"measurement": "time stable", "setting": "[6]; 2 mM in DMSO, stored below room temperature, by emission intensity and HPLC purity", "value": "at least 180 days"}, {"measurement": "Emission intensity, Ave", "setting": "[6]; 2 mM in DMSO, −20° C.", "value": 2114122.0}]}]}
